Measured values published in US5594001A, “Polycyclic systems, and derivatives thereof, as neurotransmitter release enhancers useful in the treatment of cognitive disorders” (The DuPont Merck Pharmaceutical Company, priority 1994, dated 1997).

Tested on: ACh level in the rat hippocampus
Assay: Microdialysis, ACh levels in the rat hippocampus in vivo
Parameters: species or system rat (male Wistar)
Details: for AUC, Area % under the curve / Peak, maximal % increase of ACh release over baseline / time of Peak after administration / Duration, minutes of release above statistical significance: Table IV
Procedure: Male Wistar Rats are anaesthetized and guide cannulas stereotaxically implanted into the brain at the level of the dorsal hippocampus. Following a minimum recovery period of 72 h, dialysis probes (0.5 mm diameter, 4.0 mm long, from BAS) are inserted into the hippocampus through the guide cannulas. The probes are perfused at a rate of 2 μl/min with artificial cerebrospinal fluid containing 100 μM physostigmine sulfate (a cholinesterase inhibitor). Rats are allowed to acclimate for 2 hours prior to sample collection. Dialysate samples are collected every 20 min (40 μl) and immediately injected onto a high performance liquid chromatograph equipped for electrochemical detection (HPLC-EC) of acetylcholine (ACh). Following collection of 3 baseline samples, drugs or vehicle control are administered in 0.01 ml/g body weight and dialysate samples are collected for an additional 3 h. The ACh peak heights of the 3 samples prior to drug administration are averaged together to determine baseline ACh levels. ACh peak heights post drug administration are measured and used to determine percent change over baseline ACh levels. At the end of experiments, probe placement is verified histologically.
ACh is separated by reverse phase chromatography (Hamilton PRP-1 column 150×4.5 mm) and converted to acetate, betaine and hydrogen peroxide on an immobilized enzyme reactor column (BAS). Hydrogen peroxide is then detected electrochemically. Mobile phase for the chromatography consists of 0.2M Na2 HPO4, 0.1 mM EDTA, 0.5 mM SOS, 0.9 mM TMA.Cl, with pH adjusted to 8.0 with phosphoric acid and […] Kathon CG (ESA) added to each liter of mobile phase to retard bacterial growth.
FIGS. 1 and 2 show the effects of fluorine substitution to the pendant groups of the anthrone and azafluorene core series on the ability of compounds to increase the level of ACh in the rat hippocampus in vivo. All compounds were tested at 5 mg/kg except Ex. No 64 which was administered at 1 mg/kg. […] This was observed even though the compound was administered by a route (i.p.) which should lead to greater bioavailability than the oral route. Example 68 of the present invention, the bis-fluorinated analog of Example 611 or U.S. Pat. No. 5,173,489, on the other hand, led to a 2-fold increase in ACh levels which was maintained for over 1 hour (FIG. 1). The anthrone compound Ex. No. 440 of U.S. Pat. No. 5,173,489, at 5 mg/kg, led to a peak ACh level of 72% over baseline (FIG. 2). Ex. No. 64 of the present invention, which is the bis-fluoro analog of Ex. No. 440 of U.S. Pat. No. 5,173,489, at 1 mg/kg, led to a delayed increase in ACh levels reaching a peak of over 100% above baseline (FIG. 2). In contrast to the observed effects of Example 440 of U.S. Pat. No. 5,173,489, the increase in ACh level after administration of Example 64 of the present invention was maintained for the entire duration of testing (3 hours).

[1] = 5 mg/kg, vehicle methocel, NSP = no significant points

## O=S1(=O)c2ccccc2C(Cc2ccnc(F)c2)(Cc2ccnc(F)c2)c2ccccc21 [Example 107, 5,5-Bis-(2-fluoropyridin-4-ylmethyl)thioxanthene-10,10-dioxide]
5 mg/kg, vehicle methocel
  AUC, Area % under the curve: 281 ± 226%
  Peak, maximal % increase of ACh release over baseline: 41 ± 10%
  time of Peak after administration: 20 min
[1]
  Duration, minutes of release above statistical significance: NSP

## [O-][S+]1c2ccccc2C(Cc2ccnc(F)c2)(Cc2ccnc(F)c2)c2ccccc21 [Example 108, 5,5-Bis(2-fluoropyridin-4-ylmethyl)thioxanthene-10-oxide]
1 mg/kg, vehicle methocel
  AUC, Area % under the curve: 184 ± 124%
  Peak, maximal % increase of ACh release over baseline: 34 ± 19%
  time of Peak after administration: 100 min
1 mg/kg, vehicle methocel, NSP = no significant points
  Duration, minutes of release above statistical significance: NSP
5 mg/kg, vehicle methocel
  AUC, Area % under the curve: 799 ± 202%
  Peak, maximal % increase of ACh release over baseline: 108 ± 80%
  time of Peak after administration: 80 min
[1]
  Duration, minutes of release above statistical significance: >

## c1ccc2c(c1)-c1ncccc1C2(Cc1ccncc1)Cc1ccncc1 [Ex. No 611 of U.S. Pat. No. 5,173,489, reference compound]
5 mg/kg i.p., FIG. 1
  effect on ACh levels over what was observed after vehicle administration: no effect on ACh levels

## O=C1c2ccccc2C(Cc2ccncc2)(Cc2ccncc2)c2ccccc21 [Ex 440 U.S. Pat. No. 5,173,489, reference compound]
5 mg/kg oral, FIG. 2
  peak ACh level over baseline: 72%
5 mg/kg, vehicle water
  AUC, Area % under the curve: 44 ± 34%
  Peak, maximal % increase of ACh release over baseline: 18 ± 15%
  time of Peak after administration: 20 min
5 mg/kg, vehicle water, NSP = no significant points
  Duration, minutes of release above statistical significance: NSP
10 mg/kg, vehicle water
  AUC, Area % under the curve: 705 ± 112%
  Duration, minutes of release above statistical significance: 100 min
  Peak, maximal % increase of ACh release over baseline: 127 ± 31%
  time of Peak after administration: 60 min

## Oc1ccc2c(c1)C(Cc1ccnc(F)c1)(Cc1ccnc(F)c1)c1ccccc1-2 [Example 61, 9,9-Bis((2-fluoro-4-pyridinyl)methyl)-2-hydroxy-9H-fluorene]
5 mg/kg, vehicle methocel
  AUC, Area % under the curve: 95 ± 61%
  Peak, maximal % increase of ACh release over baseline: 48 ± 22%
  time of Peak after administration: 20 min
[1]
  Duration, minutes of release above statistical significance: 40 min
